Series [1] concerns CDK12 and CDK13 proteins. Briefly: Degradation activity on CDK12/13 in 22RV1 cells (Western Blot). The note with it: for degradation of CDK12 and CDK13 protein levels in cells: 500 nM, 6 hours, WB (FIG. 4); for induction of degradation of CDK12 and CDK13 proteins: cell line and concentration not given there. Format: cell-based. The method, then:
Experimental methods: The cell line, 22RV1 cell line was purchased from the American Type Culture Collection (ATCC). Conventional Western Blot was used for detection as follows: 22RV1 cells were seeded in a certain number in a 12-well plate, and cultured overnight in an incubator in an adherent manner. […] The cells were lysed with a lysis buffer, and samples were collected. Then, an appropriate amount of the samples was taken for SDS-PAGE electrophoresis. After electrophoresis, the proteins were transferred to nitrocellulose membranes using a semi-dry electro-transfer system. The nitrocellulose membrane was placed in a blocking solution (5% skim milk powder diluted in TBS containing 0.1% Tween 20) and blocked at room temperature for 2 h. The membranes were then placed in a primary antibody solution (1: 1000 diluted in TBS containing 0.1% Tween 20), respectively, and incubated at 4°C overnight. The cells were washed three times with TBS containing 0.1% Tween 20, each time for 15 min. The membrane was placed in a secondary antibody solution (horseradish peroxidase-labeled goat anti-rabbit IgG, diluted at 1:1000 in TBS containing 0.1% Tween 20) and reacted at room temperature for 1 h. After washing the membrane three times as above, the membrane was developed with ECL plus reagent and photographed using Amersham Imager 600 system.
(In western blotting, separated proteins are transferred to a membrane and probed.)

Series [2] has as its system prostate cancer VCap cells. Description: Proliferation-inhibiting activity on VCap cells (CellTiter-Glo). Format: cell-based. The note with it: Homo sapiens; VCap cell line, CellTiter-Glo (FIG. 6). As for the experimental part: The cell proliferation-inhibiting activity of the compounds was determined using the CellTiter-Glo Luminescent Cell Viability Assay (Promega, Madison, WI). The cells were seeded in a 96-well plate in their respective culture media and incubated at 37°C in a 5% CO2 incubator. After overnight incubation, serial dilutions of the compounds were prepared and added to the 96-well plate. A volume of CellTiter-Glo reagent equal to the volume of the cell culture medium present in each well was added (e.g., 100 microliters of the reagent was added to 100 microliters of the culture medium for the cells in the 96-well plate). The contents were mixed on an orbital shaker for 2 min to induce cell lysis. The 96-well plate was incubated at room temperature for 10 minutes to stabilize a luminescent signal. Luminescence was recorded: the luminescence signal of each well was acquired using an Infinite M1000 Pro plate reader (Tecan, Zürich, Switzerland), and the data were analyzed using GraphPad Prism software (GraphPad Software Inc, La Jolla, CA).
In general terms: ATP-based viability assays read luminescence as a measure of living cells.

Series [3] is described as follows: Pharmacokinetics and bioavailability test in rats (Example 60). Format: in vivo. The note with it: SD rats; for F: bioavailability calculated from AUC; for oral pharmacokinetic properties: summary in words of Tables 2-6; for Cmax / Tmax / clearance / half-life: Sprague-Dawley, rat, plasma. The method, then:
(§1) Pharmacokinetics and bioavailability tests in rats. SD rats were given a single oral (10 mg/kg), intravenous (2.5 mg/kg) and intraperitoneal (10 mg/kg) dose, followed by animal blood sample collection at appropriate time points. Heparin was added for anticoagulation, and the samples were centrifuged at 8000 rpm for 6 min. The supernatant was collected and stored at -20°C for HPLC-MS analysis. The blood samples underwent protein precipitation with acetonitrile at 12 000 rpm * 10 min, and the supernatant was used for HPCL-MS analysis. The data underwent parameter fitting with DAS2.0, to obtain compartmental model and non-compartmental model parameters, respectively. The oral bioavailability of the compounds was calculated based on the area under the plasma concentration-time curve (AUC) data. […] Table 2. Pharmacokinetic experimental results of compounds YJZ9069 and YJZ1102

The test system of series [4] is CDK12 and CDK13 proteins. Briefly: Degradation activity on CDK12/13 in MDA-MB-231 cells (Western Blot). The note with it: 0.1µM or 0.3µM, 15 h, WB (FIG. 1). Format: cell-based. The method, then:
Experimental methods: The cell line MDA-MB-231 was purchased from the American Type Culture Collection (ATCC). Conventional Western Blot was used for detection, as follows: MDA-MB-231 cells were seeded at a density of 2 x 10^5/mL in a 12-well plate, with 1 mL per well, and cultured overnight in an incubator in an adherent manner. Then, a certain concentration of compounds was added to act for 15 h. The cells were lysed with a lysis buffer, and protein samples were collected. An appropriate amount of the sample was taken for SDS-PAGE electrophoresis. After electrophoresis, the protein was transferred to a polyvinylidene fluoride (PVDF) membrane using a wet electro-transfer system. The PVDF membrane after electro-transfer was cut into several required strips, which were then placed in a blocking solution (5% skim milk powder diluted in TBS containing 0.1% Tween 20) and blocked at room temperature for 1.5 h. A primary antibody solution was prepared by diluting a primary antibody against the corresponding target protein in TBS containing 0.1% Tween 20 according to the dilution requirements of different antibodies, such as 1:1000 (CST), 1:3000 (Proteintech, Bethyl), and 1:200 (Santacruz). The blocked membrane was placed in the corresponding primary antibody solution and incubated at 4°C for 12-14 h. Then, the cells were washed three times with TBS containing 0.1% Tween 20, each time for 5 min. After washing, the membrane was placed in a secondary antibody solution (horseradish peroxidase-labeled goat anti-rabbit IgG, diluted at 1:2000 in TBS containing 0.1% Tween 20) and reacted at room temperature for 2 h. After washing the membrane three times as above, the membrane was developed with StarSignal plus reagent (GenStar®) and Omni-ECL reagent (Yazyme®), and photographed with Amersham Imager 800 system.

Series [5] in a line: Pharmacokinetics and bioavailability test in rats (Example 57). It is filed as in vivo. The note with it: SD rats; for MRT last: read-out: MRT(0-t); for MRT inf: read-out: MRT(0-∞). As for the experimental part: as §1, with “Table 1.” for “Table 2.”, “of compound zlc-4-93” for “of compounds YJZ9069 and YJZ1102”
Where [6] appears, read: Sprague-Dawley, rat, plasma, iv, i.v. 2.5 mg/kg.
[7] abbreviates: Sprague-Dawley, rat, plasma, Oral 10 mg/kg.

Molecules are shown by their SMILES. Read-outs that look alike come from different tables or passages of the source. Where only a bound is given, the exact number is not on record here.

As to `O=C1CCC(N2C(=O)c3ccc(N4CCC(N5CCN(c6ccc(N(C(=O)NCc7ccccc7)[C@H]7CC[C@H](Nc8ncc9ccccc9n8)CC7)cc6)CC5)CC4)cc3C2=O)C(=O)N1` (stereo partly shown) [YJZ1105, 3-benzyl-1-(4-(4-(1-(2-(2,6-dioxopiperidin-3-yl)-1,3-dioxoisoindol-5-yl)piperidin-4-yl)-piperazin-1-yl)phenyl)-1-((1r,4r)-4-(quinazolin-2-ylamino)cyclohexyl)urea], the “degradation of CDK12 and CDK13 protein levels in cells” value (“degradation … in cells” for short) with CDK12 and CDK13 proteins [1] (22RV1 cells) is on record as “effectively degrade”. This compound also had an IC50 in series [2] of 15.1 nM. In series [3] (PO 10 mg/kg), the F is 26.64%, the maximum concentration (Cmax) was 625 ng/mL, the time to peak (Tmax) amounted to 6 h and the half-life was 7.2 h. For the same compound, the oral pharmacokinetic properties entry in series [3] is “excellent”. Also, in series [3] (IV 2.5 mg/kg), the maximum concentration (Cmax) is 1390 ng/mL, the Tmax came out at 0.08 h, the clearance is 4.8 mL/min/kg and the half-life was 7.05 h.

Regarding `O=C1CCC(N2C(=O)c3cccc(NCCCCCCCCCC(=O)N4CCN(c5cccc(N(C(=O)NCc6ccccc6)[C@H]6CC[C@H](Nc7ncc8ccccc8n7)CC6)c5)CC4)c3C2=O)C(=O)N1` (stereo partly shown) [YJZ9055], in the series with CDK12 and CDK13 proteins [1], the “induction of degradation of CDK12 and CDK13 proteins” value is on record as “cannot effectively induce degradation”. The compound further gave a concentration for half-maximal inhibition (IC50) in series [2] of 2200 nM.

Regarding `CN1C(=O)CCC(N2C(=O)c3cccc(OCC(=O)N4CCN(c5ccc(N(C(=O)NCc6ccccc6)[C@H]6CC[C@H](Nc7ncc8ccccc8n7)CC6)cc5)CC4)c3C2=O)C1=O` (stereo partly shown) [YJZ1078], the “induction of degradation of CDK12 and CDK13 proteins” value in the series with CDK12 and CDK13 proteins [1] is on record as “cannot effectively induce degradation”. Moreover, the IC50 in series [2] is > 5000 nM.

Consider `N#Cc1ccc(N[C@H]2CC[C@H](N(C(=O)NCc3ccccc3)c3ccc(N4CCC(CN5CCN(c6ccc7c(c6)C(=O)N(C6CCC(=O)NC6=O)C7=O)CC5)CC4)cc3)CC2)nc1` (stereo partly shown) [ZLC6-42], for which the “degradation … in cells” value with CDK12 and CDK13 proteins [4] is “effectively degrade”.

Regarding `N#Cc1ccc(N[C@H]2CC[C@H](N(C(=O)NCc3ccccc3)c3ccc(N4CCN(C5CCN(c6ccc7c(c6)C(=O)N(C6CCC(=O)NC6=O)C7=O)CC5)CC4)cc3)CC2)nc1` (stereo partly shown) [zlc-4-93], the F in series [5] (Oral 10 mg/kg, bioavailability calculated from AUC) is 16.46%. Besides, the oral pharmacokinetic properties entry in series [5] (summary in words of Table 1) is listed as “excellent”. In series [5] (setting [6]), the AUC(0-inf) was found to be 4740 ng·h/mL, the exposure AUC(0-t) is 4720 ng·h/mL, the highest level (Cmax) was 2590 ng/mL and the Tmax was determined as 0.08 h. For the same compound, in series [5] (setting [6]), the clearance is 9.85 mL/min/kg, the half-life is 2.38 h, the MRT last was found to be 2.37 h and the MRT inf came to 2.44 h. In series [5] (setting [7]), the area under the curve AUC(0-inf) stood at 3130 ng·h/mL, the AUC(0-t) came to 3110 ng·h/mL, the Cmax amounted to 308 ng/mL and the time to peak (Tmax) is 4 h. In series [5] (setting [7]), the half-life is 3.04 h, the MRT last came out at 6.06 h and the MRT inf was found to be 6.19 h.

Take `N#Cc1ccc(N[C@H]2CC[C@H](N(C(=O)NCc3ccccc3)c3ccc(N4CCC5(CC4)CN(c4ccc6c(c4)C(=O)N(C4CCC(=O)NC4=O)C6=O)C5)cc3)CC2)nc1` (stereo partly shown) [ZLC6-103]: in the series with CDK12 and CDK13 proteins [4], the “degradation … in cells” value is reported as “effectively degrade”.

In the case of `O=C1CCC(N2C(=O)c3cc(F)c(N4CCC(N5CCN(c6ccc(N(C(=O)NCc7ccccc7)[C@H]7CC[C@H](Nc8ncc9ccccc9n8)CC7)cn6)CC5)CC4)cc3C2=O)C(=O)N1` (stereo partly shown) [YJZ1206], the “degradation of CDK12 and CDK13 proteins” value with CDK12 and CDK13 proteins [1] (22RV1 cells, 100 nM, 6 h (FIG. 5)) was “almost completely degrade”. Further, in the series with CDK12 and CDK13 proteins [1] (22RV1 cells), the “degradation … in cells” value was “effectively degrade”. For the same compound, the “dose dependence of degradation of CDK12 and CDK13 proteins” value in the series on CDK12 and CDK13 proteins [1] (22RV1 cells, different concentrations, 6 h (FIG. 4B, FIG. 5)) is recorded as “dose-dependent manner”. Also, in series [3] (PO 10 mg/kg), the F is 39.16%, the highest level (Cmax) was 1130 ng/mL, the Tmax is 6 h and the half-life was 6.24 h. Also, the oral pharmacokinetic properties entry in series [3] was “excellent”. In series [3] (IV 2.5 mg/kg), the peak concentration (Cmax) is 3120 ng/mL, the Tmax is 0.08 h, the clearance is 4.29 mL/min/kg and the half-life was 5.15 h.

`N#Cc1ccc(N[C@H]2CC[C@H](N(C(=O)NCc3ccccc3)c3ccc(N4CCN(CC5CN(c6cc7c(cc6F)C(=O)N(C6CCC(=O)NC6=O)C7=O)C5)CC4)cc3)CC2)nc1` (stereo partly shown) [ZLC7-36]: the “degradation … in cells” value in the series on CDK12 and CDK13 proteins [4] is given as “effectively degrade”.

With `N#Cc1ccc(N[C@H]2CC[C@H](N(C(=O)NCc3ccccc3)c3ccc(N4CCN(C[C@@H]5CCN(c6ccc7c(c6)C(=O)N(C6CCC(=O)NC6=O)C7=O)C5)CC4)cc3)CC2)nc1` (stereo partly shown) [ZLC5-106], the “degradation … in cells” value in the series with CDK12 and CDK13 proteins [4] is on record as “effectively degrade”.

`N#Cc1ccc(N[C@H]2CC[C@H](N(C(=O)NCc3ccccc3)c3ccc(N4CCC(CN5CC6(C5)CN(c5ccc7c(c5)C(=O)N(C5CCC(=O)NC5=O)C7=O)C6)CC4)cc3)CC2)nc1` (stereo partly shown) [ZLC6-37]: the “degradation … in cells” value in the series on CDK12 and CDK13 proteins [4] is “effectively degrade”.

The IC50 is the midpoint of a concentration-inhibition curve. In general, Cmax refers to the maximum level reached in the sampled fluid or tissue. The term Tmax denotes the time at which the peak concentration occurs. By clearance is commonly meant the rate of elimination divided by the concentration. Low readings indicate inefficient removal, high ones efficient removal. Broadly, the half-life is the time needed for the level to fall by half in the phase considered. Lower therefore signals fast loss. One may read the AUC(0-inf) as the area under the concentration-time curve extrapolated to infinity. A low value points to less exposure. As a reminder, the AUC(0-t) is the area under the concentration-time curve up to a stated or last time point.
